In data set [1] the target is hDOR (Homo sapiens, UniProt P41143). The data set is described as follows: [35S]GTPγS binding, G-protein activation. The format is biochemical. The following applies: for type of activity at hDOR: 1 μM, no activation; for Emax at 1 µM: hDOR, determined from single-concentration (1 μM) experiments, read-out: Emax (% of vehicle). A general note: GTPγS is a poorly hydrolysed GTP analogue; its binding reports G protein activation.

For data set [2] the following is noted: for NorBUP in fetal brains or maternal plasma: 1 or 3 mg/kg/day s.c. minipump, GD 9-20.
The conditions of data set [3]: 4 mg/kg i.v.; data not shown.
Data set [4] deals with rats. Nature of the data set: warm water tail withdrawal assay (antinociception). The following applies: for % MPE (at 0.1 mg/kg): 0.1 mg/kg i.v., mean (95% confidence interval); for ED50: Rattus norvegicus, iv.
Data set [5] has as its target hMOR (Homo sapiens, UniProt P35372). Nature of the data set: biochemical. As to conditions: read-out: Emax (% of vehicle).

Chain of hDOR (P41143 whole entry): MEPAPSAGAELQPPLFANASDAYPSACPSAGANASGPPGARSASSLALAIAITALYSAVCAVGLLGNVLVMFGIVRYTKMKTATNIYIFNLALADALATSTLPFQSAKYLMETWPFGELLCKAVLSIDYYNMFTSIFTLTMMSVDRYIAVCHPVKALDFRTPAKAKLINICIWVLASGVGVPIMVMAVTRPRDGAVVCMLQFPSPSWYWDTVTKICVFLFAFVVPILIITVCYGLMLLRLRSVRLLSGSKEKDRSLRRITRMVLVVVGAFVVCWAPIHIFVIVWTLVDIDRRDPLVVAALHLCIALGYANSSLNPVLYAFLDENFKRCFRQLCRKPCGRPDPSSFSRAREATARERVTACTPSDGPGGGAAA
Chain of hMOR (P35372 whole entry): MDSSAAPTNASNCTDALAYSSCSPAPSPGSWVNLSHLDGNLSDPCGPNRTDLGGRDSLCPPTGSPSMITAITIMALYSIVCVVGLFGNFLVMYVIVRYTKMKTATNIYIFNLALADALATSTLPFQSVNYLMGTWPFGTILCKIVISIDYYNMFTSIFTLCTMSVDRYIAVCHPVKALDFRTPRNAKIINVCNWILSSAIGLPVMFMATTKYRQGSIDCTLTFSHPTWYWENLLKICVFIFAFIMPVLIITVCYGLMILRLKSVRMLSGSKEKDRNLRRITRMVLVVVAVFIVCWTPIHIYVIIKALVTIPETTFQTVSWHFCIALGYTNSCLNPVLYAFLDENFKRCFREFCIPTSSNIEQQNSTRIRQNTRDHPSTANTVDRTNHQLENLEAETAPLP

A word on the Emax: it is the size of the effect at its maximum, as opposed to the concentration needed. In general, ED50 refers to the dose at which the effect has come halfway, by size or by number of responders. Turning to `CO[C@@]12CC[C@@]3(C[C@@H]1[C@](C)(O)C(C)(C)C)C1Cc4ccc(O)c5c4[C@@]3(CCN1CC1CC1)[C@H]2O5` [BUP, buprenorphine], the “type of activity at hDOR” value in data set [1] is on record as “neutral antagonists of hDORs”. The maximal effect (Emax) at 1 µM in data set [1] worked out at 114%. In addition, the “NorBUP in fetal brains or maternal plasma” value in data set [2] is listed as “detected no NorBUP”. Moreover, in data set [3], the “area under the NorBUP glucuronide curve, BUP versus BUP-D2 group” value is “significantly greater”. The entries for the “% MPE (at 0.1 mg/kg)” value in data set [4] (10 minutes) and in data set [4] (60 minutes) were 90.1 (68.8-111.4) % MPE and 96.8 (83.2-110.5) % MPE, respectively. In addition, the ED50 worked out at 0.025 mg/kg in data set [4] (10 min) and 0.021 mg/kg in data set [4] (1 h).
Regarding `[2H]C([2H])(C1CC1)N1CC[C@]23c4c5ccc(O)c4O[C@H]2[C@@]2(OC)CC[C@@]3(C[C@@H]2[C@](C)(O)C(C)(C)C)C1C5` [BUP-D2, (4aS,6R,7R,7aR,12bS)-3-(cyclopropylmethyl-d2)-6-((S)-2-hydroxy-3,3-dimethylbutan-2-yl)-7-methoxy-1,2,3,4,5,6,7,7a-octahydro-4a,7-ethano-4,12-methanobenzofuro[3,2-e]isoquinolin-9-ol], the “type of activity at hDOR” value in data set [1] is listed as “neutral antagonists of hDORs”. Besides, the maximal response (Emax) at 1 µM in data set [1] came to 107%. The “NorBUP in fetal brains or maternal plasma” value in data set [2] was “detected no NorBUP”. The “area under the curve vs. BUP” value in data set [2] (maternal plasma, data not shown) was “significantly greater”. The “% MPE (at 0.1 mg/kg)” value is reported as 84.4 (43.5-125.2) % MPE in data set [4] (10 minutes) and 97.9 (89.1-106.8) % MPE in data set [4] (60 minutes). For the same molecule, the ED50 in data set [4] (10 min) is 0.021 mg/kg; in data set [4] (1 h), 0.018 mg/kg.
With `C[C@@H](NC(=O)[C@@H](N)Cc1ccc(O)cc1)C(=O)NCC(=O)N(C)[C@@H](Cc1ccccc1)C(=O)NCCO` [DAMGO], in data set [5], the Emax worked out at 308%.

The values are drawn from US20260174855A1 (priority 2022, published 2026).
